According to PubChem BioAssay AID248 (DTP/NCI, 2004):
“And” between values parts separate entries of the source, which are not always exact repeats. Equal values may be shown once. Inconclusive results and toxic doses are left out. No stated cut-off is given here; in the data, active means T/C of 150% or more; inactive means T/C below 125%.

Test system: L1210 leukemia ip in BDF1 mice, survival T/C
Experiment: NCI In Vivo Anticancer Drug Screen. Data for tumor model L1210 Leukemia (intraperitoneal) in B6D2F1 (BDF1) mice
Details: endpoint: mean survival time, higher = longer survival
Method in brief: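 Read-out is survival time, reported as the treated-group measurement over the vehicle-control measurement.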

[1] = dose: 50.0 mg/kg/injection, schedule: Q01DX001 (ip), vehicle: carboxymethylcellulose (CMC)
[2] = dose: 100.0 mg/kg/injection, schedule: Q01DX001 (ip), vehicle: carboxymethylcellulose (CMC)
[3] = dose: 200.0 mg/kg/injection, schedule: Q01DX001 (ip), vehicle: carboxymethylcellulose (CMC)
[4] = dose: 400.0 mg/kg/injection, schedule: Q01DX001 (ip), vehicle: carboxymethylcellulose (CMC)
[5] = dose: 100.0 mg/kg/injection, schedule: Q01DX001 (ip), vehicle: saline
[6] = dose: 100.0 mg/kg/injection, schedule: Q04DX003 (ip), vehicle: saline
[7] = dose: 200.0 mg/kg/injection, schedule: Q01DX001 (ip), vehicle: saline
[8] = dose: 200.0 mg/kg/injection, schedule: Q04DX003 (ip), vehicle: saline
[9] = dose: 100.0 mg/kg/injection, schedule: Q01DX009 (ip), vehicle: Klucel (hydroxypropylcellulose) (HPC)
[10] = dose: 100.0 mg/kg/injection, schedule: Q04DX003 (ip), vehicle: Klucel (hydroxypropylcellulose) (HPC)
[11] = dose: 200.0 mg/kg/injection, schedule: Q04DX003 (ip), vehicle: Klucel (hydroxypropylcellulose) (HPC)
[12] = dose: 100.0 mg/kg/injection, schedule: Q04DX002 (ip), vehicle: Klucel (hydroxypropylcellulose) (HPC)
[13] = dose: 200.0 mg/kg/injection, schedule: Q04DX002 (ip), vehicle: Klucel (hydroxypropylcellulose) (HPC)
[14] = dose: 100.0 mg/kg/injection, schedule: Q04DX003 (ip), vehicle: saline with Tween-80
[15] = dose: 200.0 mg/kg/injection, schedule: Q04DX003 (ip), vehicle: saline with Tween-80
[16] = dose: 400.0 mg/kg/injection, schedule: Q04DX003 (ip), vehicle: saline with Tween-80
[17] = dose: 100.0 mg/kg/injection, schedule: Q01DX009 (ip), vehicle: saline with Tween-80
[18] = dose: 200.0 mg/kg/injection, schedule: Q01DX009 (ip), vehicle: saline with Tween-80
[19] = dose: 400.0 mg/kg/injection, schedule: Q01DX009 (ip), vehicle: saline with Tween-80
[20] = dose: 400.0 mg/kg/injection, schedule: Q01DX001 (ip), vehicle: saline
[21] = dose: 400.0 mg/kg/injection, schedule: Q04DX003 (ip), vehicle: saline

Measured: T/C

O=C1c2ccccc2C(=O)N1CCS(=O)(=O)Cl
inactive: dose: 25.0 mg/kg/injection, schedule: Q01DX001 (ip), vehicle: carboxymethylcellulose (CMC) 104 % of control | dose: 25.0 mg/kg/injection, schedule: Q01DX009 (ip), vehicle: carboxymethylcellulose (CMC) 92 % of control and 96 % of control | [1] 100 % of control | dose: 50.0 mg/kg/injection, schedule: Q01DX009 (ip), vehicle: carboxymethylcellulose (CMC) 92 % of control and 102 % of control | dose: 50.0 mg/kg/injection, schedule: Q04DX003 (ip), vehicle: carboxymethylcellulose (CMC) 97 % of control and 98 % of control | [2] 92 % of control and 99 % of control | dose: 100.0 mg/kg/injection, schedule: Q01DX009 (ip), vehicle: carboxymethylcellulose (CMC) 92 % of control and 95 % of control and 89 % of control | dose: 100.0 mg/kg/injection, schedule: Q04DX002 (ip), vehicle: carboxymethylcellulose (CMC) 93 % of control and 97 % of control | dose: 100.0 mg/kg/injection, schedule: Q04DX003 (ip), vehicle: carboxymethylcellulose (CMC) 100 % of control and 113 % of control | [3] 97 % of control | dose: 200.0 mg/kg/injection, schedule: Q04DX002 (ip), vehicle: carboxymethylcellulose (CMC) 97 % of control | dose: 200.0 mg/kg/injection, schedule: Q04DX003 (ip), vehicle: carboxymethylcellulose (CMC) 100 % of control and 102 % of control | [4] 92 % of control | dose: 400.0 mg/kg/injection, schedule: Q01DX009 (ip), vehicle: carboxymethylcellulose (CMC) 86 % of control | dose: 400.0 mg/kg/injection, schedule: Q04DX002 (ip), vehicle: carboxymethylcellulose (CMC) 97 % of control and 100 % of control

O=S(OCCCl)OCCCl
inactive: dose: 75.0 mg/kg/injection, schedule: Q04DX003 (ip), vehicle: Klucel (hydroxypropylcellulose) (HPC) 91 % of control | dose: 150.0 mg/kg/injection, schedule: Q04DX003 (ip), vehicle: Klucel (hydroxypropylcellulose) (HPC) 102 % of control | dose: 300.0 mg/kg/injection, schedule: Q04DX003 (ip), vehicle: Klucel (hydroxypropylcellulose) (HPC) 98 % of control

[Cl][Sn]([Cl])([c]1ccccc1)[c]1ccccc1.c1ccncc1
inactive: dose: 25.0 mg/kg/injection, schedule: Q01DX009 (ip), vehicle: saline 111 % of control | dose: 50.0 mg/kg/injection, schedule: Q01DX009 (ip), vehicle: saline 114 % of control | dose: 100.0 mg/kg/injection, schedule: Q01DX009 (ip), vehicle: saline 96 % of control

C=CC1CNCCC1CC(=O)OCC (centres undefined)
inactive: dose: 50.0 mg/kg/injection, schedule: Q04DX003 (ip), vehicle: saline 97 % of control | [5] 95 % of control | [6] 95 % of control | [7] 91 % of control | [8] 111 % of control

CSCc1ccc([N+](=O)[O-])cc1
inactive: [9] 103 % of control | [10] 101 % of control | dose: 200.0 mg/kg/injection, schedule: Q01DX009 (ip), vehicle: Klucel (hydroxypropylcellulose) (HPC) 103 % of control | [11] 106 % of control | dose: 400.0 mg/kg/injection, schedule: Q01DX009 (ip), vehicle: Klucel (hydroxypropylcellulose) (HPC) 116 % of control | dose: 400.0 mg/kg/injection, schedule: Q04DX003 (ip), vehicle: Klucel (hydroxypropylcellulose) (HPC) 95 % of control

CCCCCCCCCCC(OO)C(=O)OC(C)(C)C (centres undefined)
inactive: [12] 95 % of control | [13] 91 % of control | dose: 400.0 mg/kg/injection, schedule: Q04DX002 (ip), vehicle: Klucel (hydroxypropylcellulose) (HPC) 91 % of control

CC(C)=CCN(CC=C(C)C)CCC(C#N)(c1cccc2ccccc12)C(C)C (centres undefined)
inactive: dose: 25.0 mg/kg/injection, schedule: Q01DX009 (ip), vehicle: Klucel (hydroxypropylcellulose) (HPC) 101 % of control | [9] 93 % of control

O=c1oc2ccccc2c2c1C(c1ccccc1)C=C(c1ccccc1)O2 (centres undefined)
inactive: [14] 89 % of control | [15] 91 % of control | [16] 92 % of control

Cc1ccc(N=Cc2ccc([N+](=O)[O-])s2)cc1Cl
inactive: [10] 91 % of control | [11] 89 % of control

C/C(=N\O)C(C)(C)C
inactive: dose: 25.0 mg/kg/injection, schedule: Q04DX002 (ip), vehicle: Klucel (hydroxypropylcellulose) (HPC) 98 % of control | dose: 50.0 mg/kg/injection, schedule: Q04DX002 (ip), vehicle: Klucel (hydroxypropylcellulose) (HPC) 91 % of control | [12] 94 % of control and 103 % of control

C=CCNC(=O)c1ccccc1OCC(=O)O
inactive: dose: 100.0 mg/kg/injection, schedule: Q01DX009 (ip), vehicle: gum acacia 93 % of control | dose: 100.0 mg/kg/injection, schedule: Q04DX003 (ip), vehicle: gum acacia 103 % of control | dose: 200.0 mg/kg/injection, schedule: Q01DX009 (ip), vehicle: gum acacia 88 % of control | dose: 200.0 mg/kg/injection, schedule: Q04DX003 (ip), vehicle: gum acacia 100 % of control | dose: 400.0 mg/kg/injection, schedule: Q01DX009 (ip), vehicle: gum acacia 94 % of control | dose: 400.0 mg/kg/injection, schedule: Q04DX003 (ip), vehicle: gum acacia 97 % of control

OC1CC2CCC1C2 (centres undefined)
inactive: [17] 94 % of control | [14] 106 % of control | [18] 105 % of control | [15] 91 % of control | [19] 95 % of control | [16] 88 % of control

COc1ccc(OC)c(NC(=O)NNC(=O)CNC(=O)Nc2cccc(C)n2)c1
inactive: dose: 25.0 mg/kg/injection, schedule: Q01DX009 (ip), vehicle: saline with Tween-80 94 % of control | dose: 50.0 mg/kg/injection, schedule: Q01DX009 (ip), vehicle: saline with Tween-80 94 % of control | [17] 90 % of control

N#CC(c1cnc2ccccc2n1)c1cccc2ccccc12 (centres undefined)
inactive: [5] 94 % of control | [7] 92 % of control | [20] 97 % of control

CN(N=O)c1ccc(/C=C2\C=Cc3ccccc32)cc1
inactive: [1] 96 % of control | [2] 93 % of control | [3] 96 % of control | [4] 98 % of control

CCCC(=O)CCNC
inactive: [5] 103 % of control | [7] 94 % of control | [20] 111 % of control

CC(C)N=Cc1ccccc1O.CC(C)N=Cc1ccccc1O.[Ni]
inactive: dose: 6.25 mg/kg/injection, schedule: Q04DX003 (ip), vehicle: saline sonified 92 % of control | dose: 12.5 mg/kg/injection, schedule: Q04DX003 (ip), vehicle: saline sonified 101 % of control | dose: 25.0 mg/kg/injection, schedule: Q04DX003 (ip), vehicle: saline sonified 108 % of control | [6] 86 % of control

c1ccc(-c2cc3c(cc2-c2ccccc2)C(c2ccccc2)(c2ccccc2)c2nc4ccccc4nc2-3)cc1
inactive: [14] 95 % of control | [15] 93 % of control | [16] 91 % of control

COC(=O)c1cc(C(C)=O)ccc1OC(=O)c1ccccc1
inactive: [17] 98 % of control | [14] 88 % of control | [18] 94 % of control | [15] 90 % of control | [19] 100 % of control | [16] 108 % of control

CCN1CCC2CN(C(=N)N)CCN2C1=O (centres undefined)
inactive: [6] 101 % of control | [8] 103 % of control | [21] 116 % of control

CNC(=O)Nc1ccccc1[N+](=O)[O-]
inactive: [12] 108 % of control | [13] 97 % of control

COc1ccc(C(O)S(=O)(=O)O)cc1 (centres undefined)
inactive: [6] 98 % of control | [8] 100 % of control | [21] 100 % of control

COc1ccccc1OC(=O)c1ccccc1OC(=O)c1cccnc1
inactive: dose: 100.0 mg/kg/injection, schedule: Q04DX002 (ip), vehicle: saline with Tween-80 101 % of control | dose: 200.0 mg/kg/injection, schedule: Q04DX002 (ip), vehicle: saline with Tween-80 96 % of control | dose: 400.0 mg/kg/injection, schedule: Q04DX002 (ip), vehicle: saline with Tween-80 89 % of control
